One assay concerns the target T1, hT1R1/hT1R3 (Homo sapiens, UniProt Q7RTX1).
T1 construct: expressed in transfected cells; host or cells: HEK293 derivative stably expressing Gα15, clone I-17, mifepristone-induced
T1 sequence (Q7RTX1 21-841): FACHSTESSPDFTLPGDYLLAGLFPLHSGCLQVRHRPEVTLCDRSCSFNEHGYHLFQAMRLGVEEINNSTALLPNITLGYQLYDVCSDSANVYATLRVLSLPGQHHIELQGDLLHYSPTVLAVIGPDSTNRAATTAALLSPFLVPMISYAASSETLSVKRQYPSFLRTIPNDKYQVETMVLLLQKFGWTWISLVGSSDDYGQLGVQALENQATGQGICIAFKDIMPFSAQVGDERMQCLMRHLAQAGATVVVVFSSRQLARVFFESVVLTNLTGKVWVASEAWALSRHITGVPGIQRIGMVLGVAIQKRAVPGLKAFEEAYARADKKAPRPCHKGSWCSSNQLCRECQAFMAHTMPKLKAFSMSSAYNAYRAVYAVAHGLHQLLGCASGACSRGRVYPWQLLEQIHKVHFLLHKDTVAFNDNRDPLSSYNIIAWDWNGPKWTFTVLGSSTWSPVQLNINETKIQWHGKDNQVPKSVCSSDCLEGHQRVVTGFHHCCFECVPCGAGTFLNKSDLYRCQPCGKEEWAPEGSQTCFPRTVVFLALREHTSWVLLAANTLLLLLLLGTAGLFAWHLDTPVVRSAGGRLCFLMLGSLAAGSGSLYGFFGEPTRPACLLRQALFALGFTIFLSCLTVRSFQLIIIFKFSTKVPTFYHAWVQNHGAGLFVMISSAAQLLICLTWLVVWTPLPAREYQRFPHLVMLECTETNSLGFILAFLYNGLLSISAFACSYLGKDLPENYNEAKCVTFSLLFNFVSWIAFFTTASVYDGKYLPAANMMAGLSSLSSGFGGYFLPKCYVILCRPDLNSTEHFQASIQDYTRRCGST
T1 sequence (Q7RTX0 21-852 partner): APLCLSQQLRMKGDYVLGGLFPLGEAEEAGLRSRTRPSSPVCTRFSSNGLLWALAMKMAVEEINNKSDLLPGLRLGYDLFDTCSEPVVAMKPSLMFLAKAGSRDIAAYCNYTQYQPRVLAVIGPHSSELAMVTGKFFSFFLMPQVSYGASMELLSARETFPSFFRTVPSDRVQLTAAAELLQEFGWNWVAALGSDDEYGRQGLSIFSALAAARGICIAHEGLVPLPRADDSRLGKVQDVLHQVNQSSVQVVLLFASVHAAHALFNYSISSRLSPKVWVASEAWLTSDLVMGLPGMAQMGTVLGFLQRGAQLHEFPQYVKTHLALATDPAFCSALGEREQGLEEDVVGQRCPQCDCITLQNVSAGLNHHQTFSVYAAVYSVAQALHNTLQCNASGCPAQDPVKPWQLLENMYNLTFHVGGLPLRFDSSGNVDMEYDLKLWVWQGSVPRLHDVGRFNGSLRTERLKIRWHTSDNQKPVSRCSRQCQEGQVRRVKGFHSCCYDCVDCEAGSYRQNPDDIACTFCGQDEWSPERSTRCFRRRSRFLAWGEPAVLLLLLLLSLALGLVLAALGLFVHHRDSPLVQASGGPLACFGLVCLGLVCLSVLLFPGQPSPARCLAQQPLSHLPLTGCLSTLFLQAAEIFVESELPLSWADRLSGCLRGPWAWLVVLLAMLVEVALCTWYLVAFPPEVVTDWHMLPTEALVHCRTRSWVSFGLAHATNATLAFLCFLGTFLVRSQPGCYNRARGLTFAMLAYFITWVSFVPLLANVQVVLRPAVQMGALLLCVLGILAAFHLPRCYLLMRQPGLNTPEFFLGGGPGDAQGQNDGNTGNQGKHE
Kind of assay: In vitro hT1R1/hT1R3 enhancement assay (FLIPR): shift of the monosodium glutamate EC50 (EC50R). The note with it: EC50 of monosodium glutamate without / with test compound. Type of assay: cell-based. The procedure: An HEK293 cell line derivative (See e.g., Chandrashekar, et al., Cell (2000) 100: 703-711) which stably expresses Gα15 and hT1R1/hT1R3 under an inducible promoter (see e.g., International Publication No. WO 03/001876 A2) was used in association with identifying compounds with umami tasting properties.
Compounds were initially selected based on activity in the hT1R1/hT1R3-HEK293-Gα15 cell line. Activity was determined using an automated fluorometric imaging assay on a FLIPR instrument (Fluorometric Intensity Plate Reader, Molecular Devices, Sunnyvale, Calif.) (designated FLIPR assay). Cells from one clone (designated clone I-17) were seeded into 384-well plates (at approximately 48,000 cells per well) in a medium containing Dulbecco's modified Eagle's medium (DMEM) supplemented with GlutaMAX (Invitrogen, Carlsbad, Calif.), 10% dialyzed fetal bovine serum (Invitrogen, Carlsbad, Calif.), 100 Units/ml Penicillin G, 100 μg/ml Streptomycin (Invitrogen, Carlsbad, Calif.) and 60 pM mifepristone (to induce expression of hT1R1/hT1R3 (see e.g., International Publication No. WO 03/001876 A2).
I-17 cells were grown for 48 hours at 37° C. 1-17 cells were then loaded with the calcium dye Fluo-3AM (Molecular Probes, Eugene, Oreg.), 4 μM in a phosphate buffered saline (D-PBS) (Invitrogen, Carlsbad, Calif.), for 1.5 hours at room temperature. After replacement with 25 μl D-PBS, stimulation was performed in the FLIPR instrument and at room temperature by the addition of 25 μl D-PBS supplemented with different stimuli at concentrations corresponding to twice the desired final level.
Receptor activity was quantified by determining the maximal fluorescence increases (using a 480 nm excitation and 535 nm emission) after normalization to basal fluorescence intensity measured before stimulation. For dose-responses analysis, stimuli were presented in duplicates at 10 different concentrations ranging from 1.5 nM to 3 μM.
Activities were normalized to the response obtained with 60 mM monosodium glutamate, a concentration that elicits maximum receptor response. EC50s (concentration of compound that causes 50% activation of receptor) were determined using a non-linear regression algorithm, where the Hill slope, bottom asymptotes and top asymptotes were allow to vary. Identical results were obtained when analyzing the dose-response data using commercially available software for non-linear regression analysis such as GraphPad PRISM (San Diego, Calif.).
Experiments were also conducted to determine if test compounds can enhance the effect of monosodium glutamate on hT1R1/hT1R3 activity. In this assay, increasing concentrations of monosodium glutamate (ranging from 12 μM to 81 mM) were presented, in duplicates, in the presence or absence of a fixed concentration of the test compound. Typical compound concentrations tested were 100 μM, 30 μM, 10 μM, 3 μM, 1 μM, 0.3 μM, 0.1 μM and 0.03 μM. The relative efficacy of compounds at enhancing the receptor was determined by the calculating the magnitude of a shift in the EC50 for monosodium glutamate.
Enhancement was defined as a ratio (EC50R) corresponding to the EC50 of monosodium glutamate, determined in the absence of the test compound, divided by the EC50 of monosodium glutamate, determined in the presence of the test compound. In some embodiments, compounds have an EC50R between about 0.7 and about 100. In other embodiments, compounds have an EC50R between about 1.25 and about 75. In still other embodiments, compounds have an EC50R between about 1.50 and about 60. Assay results for compounds are disclosed in the table below.

The test system of another assay is un-induced I-17 cells. As to the kind of experiment: FLIPR assay on un-induced I-17 cells (no receptor expression). The assay is classed as cell-based. The note with it: monosodium glutamate. How it is done: In order to determine the dependency of hT1R1/hT1R3 for the cell response to different stimuli, selected compounds were subjected to a similar analysis on I-17 cells that had not been induced for receptor expression with mifepristone (designated as un-induced I-17 cells). […] Compounds were presented to un-induced umami cells at […]—or three times the maximum stimulation used in the dose-response analysis.

As to `COc1ccccc1C(=O)Nc1nc(O)c2ncn([C@@H]3O[C@H](COP(=O)(O)O)[C@@H](O)[C@H]3O)c2n1` [Compound 1], the EC50 ratio at hT1R1/hT1R3 (test compound 30 μM) is given as 1.67; at hT1R1/hT1R3 (test compound 100 μM), 12.91.

As for `Cc1cccc(C(=O)Nc2nc(O)c3ncn([C@@H]4O[C@H](COP(=O)(O)O)[C@@H](O)[C@H]4O)c3n2)c1` [Compound 4], the EC50 ratio on hT1R1/hT1R3 (test compound 30 μM) worked out at 1.07; at hT1R1/hT1R3 (test compound 100 μM), 1.19.

As for `O=C(COc1ccccc1)Nc1nc(O)c2ncn([C@@H]3O[C@H](COP(=O)(O)O)[C@@H](O)[C@H]3O)c2n1` [Compound 5], the figures for the EC50 ratio at hT1R1/hT1R3 (test compound 30 μM) and on hT1R1/hT1R3 (test compound 100 μM) were 1.21 and 2.22, respectively.

As for `N[C@@H](CCC(=O)O)C(=O)[O-].[Na+]` [monosodium glutamate], the “functional response in FLIPR assay” value in the assay on un-induced I-17 cells is “do not show any functional response”.

Source of the values: US20080306076A1, “MODULATION OF CHEMOSENSORY RECEPTORS AND LIGANDS ASSOCIATED THEREWITH” (SENOMYX, INC., priority 2007, published 2008).
